Assay results taken from patent publication US20250296953A1, “3,4-THIAZOLO-STEROIDS AND METHODS OF MAKING AND USING THE SAME” (Arkansas State University - Jonesboro, priority 2018, published 2025).
Where two headings read alike, the source gives them in different places.

Tests used:
SF-539 = assay: NCI 60 one dose screen; format: cell-based, human; conditions: one dose; CNS Cancer; SF-539
NCI-H522 (NSCLC) = assay: NCI 60 one dose screen; format: cell-based, human; conditions: Non-small Cell Lung Cancer
glioblastoma (SF-295) = assay: NCI 60 five dose screen; conditions: SF-295 (CNS Cancer), five dose
[1] = tested on: 60 different human tumor cell lines
SF-295 = assay: NCI 60 one dose screen; format: cell-based, human; conditions: one dose; CNS Cancer; SF-295
[2] = 786-0 (Renal Cancer), five dose
[3] = A549/ATCC (Non-small Cell Lung Cancer), five dose
[4] = BT-549 (Breast Cancer), five dose
[5] = CAKI-1 (Renal Cancer), five dose
[6] = COLO 205 (Colon Cancer), five dose
[7] = DU-145 (Prostate Cancer), five dose
[8] = EKVX (Non-small Cell Lung Cancer), five dose
[9] = HCC-2998 (Colon Cancer), five dose
[10] = HCT-15 (Colon Cancer), five dose
[11] = HL-60(TB) (Leukemia), five dose
[12] = HOP-62 (Non-small Cell Lung Cancer), five dose
[13] = HOP-92 (Non-small Cell Lung Cancer), five dose
[14] = HS 578T (Breast Cancer), five dose
[15] = IGROV1 (Ovarian Cancer), five dose
[16] = MCF7 (Breast Cancer), five dose
[17] = MDA-MB-435 (Melanoma), five dose
[18] = MDA-MB-468 (Breast Cancer), five dose
[19] = NCI-H23 (Non-small Cell Lung Cancer), five dose
[20] = NCI-H226 (Non-small Cell Lung Cancer), five dose
[21] = NCI-H322M (Non-small Cell Lung Cancer), five dose
[22] = NCI-H460 (Non-small Cell Lung Cancer), five dose
[23] = NCI-H522 (Non-small Cell Lung Cancer), five dose
[24] = NCI/ADR-RES (Ovarian Cancer), five dose
[25] = OVCAR-3 (Ovarian Cancer), five dose
[26] = OVCAR-5 (Ovarian Cancer), five dose
[27] = OVCAR-8 (Ovarian Cancer), five dose
[28] = PC-3 (Prostate Cancer), five dose
[29] = RXF 393 (Renal Cancer), five dose
[30] = SK-MEL-28 (Melanoma), five dose
[31] = SK-OV-3 (Ovarian Cancer), five dose
[32] = SN12C (Renal Cancer), five dose
[33] = SW-620 (Colon Cancer), five dose
[34] = T-47D (Breast Cancer), five dose
[35] = TK-10 (Renal Cancer), five dose
[36] = UO-31 (Renal Cancer), five dose

## C[C@]12CCc3nc(Nc4ccc(O)cc4)sc3C1=CC[C@@H]1[C@@H]2CC[C@]2(C)C(=O)CC[C@@H]12 [IIa.35]
SF-539
  Growth Percent: −3.84%
NCI-H522 (NSCLC)
  Growth Percent: −55.25%
Glioblastoma (SF-295)
  GI50: 5.26 µM
  TGI: 3.59E−5
Glioblastoma (SF-295); read-out: LC50
  CC50: > 100 µM
[1]
  CC50: > 100 µM
[1]; [2]
  GI50: 1.8 µM
  TGI: 3.82
[1]; A498 (Renal Cancer), five dose
  GI50: 14.2 µM
  TGI: 8.06E−5
[1]; [3]
  GI50: 4.42 µM
  TGI: >1.00E−4
[1]; ACHN (Renal Cancer), five dose
  GI50: 2.92 µM
  TGI: 9.29E−6
[1]; [4]
  GI50: 3.13 µM
  TGI: >1.00E−4
[1]; [5]
  GI50: 1.93 µM
  TGI: 3.97E−6
[1]; CCRF-CEM (Leukemia), five dose
  GI50: 2.47 µM
  TGI: >1.00E−4
[1]; [6]
  GI50: 2 µM
  TGI: 3.90E−6
[1]; [7]
  GI50: 1.66 µM
  TGI: 3.14E−6
[1]; [8]
  GI50: 10.4 µM
  TGI: 4.00E−4
[1]; [9]
  GI50: 4.11 µM
  TGI: >1.00E−4
[1]; [10]
  GI50: 1.66 µM
  TGI: 4.40E−6
[1]; HCT-116 (Colon Cancer), five dose
  GI50: 1.9 µM
[1]; [11]
  GI50: 2.57 µM
  TGI: 7.27E−6
[1]; [12]
  GI50: 3.28 µM
  TGI: 1.26E−5
[1]; [13]
  GI50: 2.39 µM
  TGI: 5.65E−6
[1]; [14]
  GI50: 3.38 µM
  TGI: >1.00E−4
[1]; HT29 (Colon Cancer), five dose
  GI50: 2.13 µM
  TGI: 5.59E−6
[1]; [15]
  GI50: 1.99 µM
  TGI: 5.02E−6
[1]; K-562 (Leukemia), five dose
  GI50: 2.96 µM
  TGI: >1.00E−4
[1]; KM12 (Colon Cancer), five dose
  GI50: 1.93 µM
  TGI: 4.06E−6
[1]; LOX IMVI (Melanoma), five dose
  GI50: 1.58 µM
  TGI: 3.04E−6
[1]; M14 (Melanoma), five dose
  GI50: 2.68 µM
[1]; MALME-3M (Melanoma), five dose
  GI50: 1.81 µM
  TGI: 4.03E−6
[1]; [16]
  GI50: 1.66 µM
  TGI: 4.26E−6
[1]; MDA-MB-231/ATCC (Breast Cancer), five dose
  GI50: 3.22 µM
[1]; [17]
  GI50: 2.08 µM
  TGI: 5.32E−6
[1]; [18]
  GI50: 2.17 µM
  TGI: 5.80E−6
[1]; MOLT-4 (Leukemia), five dose
  GI50: 2.38 µM
  TGI: >1.00E−4
[1]; [19]
  GI50: 3.96 µM
  TGI: >1.00E−4
[1]; [20]
  GI50: 2.86 µM
  TGI: 8.52E−6
[1]; [21]
  GI50: 6.4 µM
  TGI: >1.00E−4
[1]; [22]
  GI50: 3.01 µM
  TGI: 1.05E−5
[1]; [23]
  GI50: 1.42 µM
  TGI: 2.96E−6
[1]; [24]
  GI50: 3.27 µM
  TGI: >1.00E−4
[1]; [25]
  GI50: 1.71 µM
  TGI: 3.38E−6
[1]; OVCAR-4 (Ovarian Cancer), five dose
  GI50: 2.03 µM
[1]; [26]
  GI50: 3.91 µM
  TGI: >1.00E−4
[1]; [27]
  GI50: 3.22 µM
  TGI: >1.00E−4
[1]; [28]
  GI50: 2.49 µM
  TGI: 8.15E−6
[1]; [29]
  GI50: 1.78 µM
  TGI: 4.14E−6
[1]; SF-268 (CNS Cancer), five dose
  GI50: 3.37 µM
  TGI: 4.00E−4
[1]; SK-MEL-2 (Melanoma), five dose
  GI50: 6.98 µM
  TGI: >1.00E−4
[1]; SK-MEL-5 (Melanoma), five dose
  GI50: 4.33 µM
  TGI: 3.19E−5
[1]; [30]
  GI50: 2.08 µM
  TGI: 4.75E−6
[1]; [31]
  GI50: 12.3 µM
  TGI: >1.00E−4
[1]; [32]
  GI50: 2.91 µM
  TGI: >1.00E−4
[1]; SNB-19 (CNS Cancer), five dose
  GI50: 10.9 µM
  TGI: >1.00E−4
[1]; SNB-75 (CNS Cancer), five dose
  GI50: 2.76 µM
  TGI: >1.00E−4
[1]; [33]
  GI50: 2.08 µM
  TGI: 4.73E−6
[1]; [34]
  GI50: 1.95 µM
  TGI: 5.03E−6
[1]; [35]
  GI50: 2.01 µM
  TGI: 4.40E−6
[1]; U251 (CNS Cancer), five dose
  GI50: 3.06 µM
  TGI: 2.19E−5
[1]; UACC-62 (Melanoma), five dose
  GI50: 1.76 µM
  TGI: 4.02E−6
[1]; UACC-257 (Melanoma), five dose
  GI50: 1.86 µM
  TGI: 4.62E−6
[1]; [36]
  GI50: 1.54 µM
  TGI: 2.90E−6
[1]; read-out: LC50, A498 (Renal Cancer), five dose
  CC50: > 100 µM
[1]; read-out: LC50, A549/ATCC (Non-small Cell Lung Cancer), five dose
  CC50: > 100 µM
[1]; read-out: LC50, ACHN (Renal Cancer), five dose
  CC50: 36.6 µM
[1]; read-out: LC50, BT-549 (Breast Cancer), five dose
  CC50: > 100 µM
[1]; read-out: LC50, CCRF-CEM (Leukemia), five dose
  CC50: > 100 µM
[1]; read-out: LC50, COLO 205 (Colon Cancer), five dose
  CC50: 7.61 µM
[1]; read-out: LC50, EKVX (Non-small Cell Lung Cancer), five dose
  CC50: > 100 µM
[1]; read-out: LC50, HCC-2998 (Colon Cancer), five dose
  CC50: > 100 µM
[1]; read-out: LC50, HCT-15 (Colon Cancer), five dose
  CC50: > 100 µM
[1]; read-out: LC50, HL-60(TB) (Leukemia), five dose
  CC50: > 100 µM
[1]; read-out: LC50, HOP-62 (Non-small Cell Lung Cancer), five dose
  CC50: > 100 µM
[1]; read-out: LC50, HOP-92 (Non-small Cell Lung Cancer), five dose
  CC50: > 100 µM
[1]; read-out: LC50, HT29 (Colon Cancer), five dose
  CC50: > 100 µM
[1]; read-out: LC50, IGROV1 (Ovarian Cancer), five dose
  CC50: > 100 µM
[1]; read-out: LC50, K-562 (Leukemia), five dose
  CC50: > 100 µM
[1]; read-out: LC50, M14 (Melanoma), five dose
  CC50: > 100 µM
[1]; read-out: LC50, MALME-3M (Melanoma), five dose
  CC50: 8.96 µM
[1]; read-out: LC50, MCF7 (Breast Cancer), five dose
  CC50: > 100 µM
[1]; read-out: LC50, MDA-MB-231/ATCC (Breast Cancer), five dose
  CC50: > 100 µM
[1]; read-out: LC50, MDA-MB-435 (Melanoma), five dose
  CC50: > 100 µM
[1]; read-out: LC50, MDA-MB-468 (Breast Cancer), five dose
  CC50: > 100 µM
[1]; read-out: LC50, MOLT-4 (Leukemia), five dose
  CC50: > 100 µM
[1]; read-out: LC50, NCI-H23 (Non-small Cell Lung Cancer), five dose
  CC50: > 100 µM
[1]; read-out: LC50, NCI-H226 (Non-small Cell Lung Cancer), five dose
  CC50: > 100 µM
[1]; read-out: LC50, NCI-H460 (Non-small Cell Lung Cancer), five dose
  CC50: > 100 µM
[1]; read-out: LC50, NCI-H522 (Non-small Cell Lung Cancer), five dose
  CC50: 6.18 µM
[1]; read-out: LC50, NCI/ADR-RES (Ovarian Cancer), five dose
  CC50: > 100 µM
[1]; read-out: LC50, OVCAR-3 (Ovarian Cancer), five dose
  CC50: 6.7 µM
[1]; read-out: LC50, OVCAR-4 (Ovarian Cancer), five dose
  CC50: > 100 µM
[1]; read-out: LC50, OVCAR-5 (Ovarian Cancer), five dose
  CC50: > 100 µM
[1]; read-out: LC50, OVCAR-8 (Ovarian Cancer), five dose
  CC50: > 100 µM
[1]; read-out: LC50, PC-3 (Prostate Cancer), five dose
  CC50: > 100 µM
[1]; read-out: LC50, SF-268 (CNS Cancer), five dose
  CC50: > 100 µM
[1]; read-out: LC50, SK-MEL-2 (Melanoma), five dose
  CC50: > 100 µM
[1]; read-out: LC50, SK-MEL-5 (Melanoma), five dose
  CC50: > 100 µM
[1]; read-out: LC50, SK-MEL-28 (Melanoma), five dose
  CC50: > 100 µM
[1]; read-out: LC50, SK-OV-3 (Ovarian Cancer), five dose
  CC50: > 100 µM
[1]; read-out: LC50, SN12C (Renal Cancer), five dose
  CC50: > 100 µM
[1]; read-out: LC50, SNB-19 (CNS Cancer), five dose
  CC50: > 100 µM
[1]; read-out: LC50, SNB-75 (CNS Cancer), five dose
  CC50: > 100 µM
[1]; read-out: LC50, SW-620 (Colon Cancer), five dose
  CC50: > 100 µM
[1]; read-out: LC50, T-47D (Breast Cancer), five dose
  CC50: > 100 µM
[1]; read-out: LC50, TK-10 (Renal Cancer), five dose
  CC50: 9.6 µM
[1]; read-out: LC50, U251 (CNS Cancer), five dose
  CC50: > 100 µM
[1]; read-out: LC50, UACC-62 (Melanoma), five dose
  CC50: 9.19 µM
[1]; read-out: LC50, UACC-257 (Melanoma), five dose
  CC50: > 100 µM
[1]; read-out: LC50, UO-31 (Renal Cancer), five dose
  CC50: 9.49 µM
SF-295
  Growth Percent: 52.47%
